The target in the assay is BTK (Homo sapiens (Human), UniProt Q06187). As to the kind of experiment: Z'-LYTE kinase inhibition assay against BTK. Type of assay: biochemical. The conditions noted are these: for inhibition at 0.1 µM: compound at 100 nM, ATP concentration at Km; for IC50: series of concentrations, GraphPad Prism 5. The method, boiled down: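 Compounds were titrated over 10 points (3-fold steps, 1% DMSO) against BTK (1.04-10.4 ng) using Tyr 01 substrate at 2 μM and ATP at Km, pH 7.5 HEPES buffer with MgCl2 and EGTA. After one hour each of reaction and development at room temperature, fluorescence gave percent inhibition and IC50.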
Chain of BTK (Q06187 whole entry): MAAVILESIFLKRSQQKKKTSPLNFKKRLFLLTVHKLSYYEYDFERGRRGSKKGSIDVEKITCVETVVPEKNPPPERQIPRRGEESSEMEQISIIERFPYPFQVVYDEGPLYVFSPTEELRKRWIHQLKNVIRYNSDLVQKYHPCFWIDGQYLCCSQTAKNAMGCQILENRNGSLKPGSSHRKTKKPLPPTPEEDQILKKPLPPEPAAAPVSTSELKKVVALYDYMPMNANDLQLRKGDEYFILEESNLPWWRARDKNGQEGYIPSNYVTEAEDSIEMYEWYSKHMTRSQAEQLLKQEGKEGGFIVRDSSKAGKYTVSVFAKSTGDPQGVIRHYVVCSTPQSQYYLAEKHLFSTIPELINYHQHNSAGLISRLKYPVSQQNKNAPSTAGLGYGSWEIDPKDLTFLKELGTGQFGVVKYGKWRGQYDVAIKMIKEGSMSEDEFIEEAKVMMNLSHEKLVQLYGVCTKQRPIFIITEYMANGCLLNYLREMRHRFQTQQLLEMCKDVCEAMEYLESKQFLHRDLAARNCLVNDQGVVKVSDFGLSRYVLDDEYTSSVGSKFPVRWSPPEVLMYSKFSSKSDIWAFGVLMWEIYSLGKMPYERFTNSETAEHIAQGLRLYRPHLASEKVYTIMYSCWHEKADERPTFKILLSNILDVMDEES

The molecule `C=CC(=O)Nc1cccc(-c2cc(-c3ccccc3C#N)cc3cnc(N)nc23)c1` [C091, N-(3-(2-amino-6-(2-cyanophenyl)quinazolin-8-yl)phenyl)acrylamide] returned an inhibition at 0.1 µM greater than 50% and an IC50 of less than 100 nM.
`C=CC(=O)Nc1cccc(-c2cc(-c3ccc(C(=O)Nc4cccc(F)c4)nc3)cc3cncnc23)c1` [C092, 5-(8-(3-acrylamidophenyl)quinazolin-6-yl)-N-(3-fluorophenyl)picolinamide]: the inhibition at 0.1 µM was greater than 50%.
As to `C=CC(=O)N1CCC(c2cc(-c3ccc(C(=O)Nc4cccc(C(F)(F)F)c4)nc3)cc3cncnc23)C1` (centres unmarked) [C093, 5-(8-(1-acryloylpyrrolidin-3-yl)quinazolin-6-yl)-N-(3-(trifluoromethyl)phenyl)picolinamide], the inhibition at 0.1 µM was less than 50%.
In turn, `C=CC(=O)N1CCC(c2cc(-c3ccc(C(=O)Nc4ccccn4)cc3F)cc3cncnc23)C1` (centres unmarked) [C094, 4-(8-(1-acryloylpyrrolidin-3-yl)quinazolin-6-yl)-3-fluoro-N-(pyridin-2-yl)benzamide] came in with an inhibition at 0.1 µM of less than 50%.
`C=CC(=O)N1CCC(c2cc(-c3ccc(Oc4cccc(F)c4)nc3)cc3cncnc23)C1` (centres unmarked) [C095, 1-(3-(6-(6-(3-fluorophenoxy)pyridin-3-yl)quinazolin-8-yl)pyrrolidin-1-yl)prop-2-en-1-one] had an inhibition at 0.1 µM of less than 50%.
The molecule `C=CC(=O)Nc1cccc(-c2cc(-c3ccc(Oc4ccccc4F)nc3)cc3cncnc23)c1` [C096, N-(3-(6-(6-(2-fluorophenoxy)pyridin-3-yl)quinazolin-8-yl)phenyl)acrylamide] came in with an inhibition at 0.1 µM greater than 50%.
In turn, `C=CC(=O)N1CCC(c2cc(-c3ccc(C(=O)Nc4cccc(F)c4)nc3)cc3cncnc23)C1` (centres unmarked) [C097, 5-(8-(1-acryloylpyrrolidin-3-yl)quinazolin-6-yl)-N-(3-fluorophenyl)picolinamide] showed an inhibition at 0.1 µM of less than 50%.
`C=CC(=O)Nc1cccc(-c2cc(-c3ccc(Oc4cc(C(F)(F)F)ccn4)cc3)cc3cnc(N)nc23)c1` [C098, N-(3-(2-amino-6-(4-((4-(trifluoromethyl)pyridin-2-yl)oxy)phenyl)quinazolin-8-yl)phenyl)acrylamide] gave an inhibition at 0.1 µM of less than 50%.
On the same count and under the same terms, under `C=CC(=O)Nc1cccc(-c2cc(-c3ccc(C(=O)N4CCOCC4)cc3)cc3cncnc23)c1` [C101, N-(3-(6-(4-(morpholine-4-carbonyl)phenyl)quinazolin-8-yl)phenyl)acrylamide] stands greater than 50%.
`C=CC(=O)Nc1cccc(-c2cc(-c3cncc(Cl)c3)cc3cnc(N)nc23)c1` [C103, N-(3-(2-amino-6-(5-chloropyridin-3-yl)quinazolin-8-yl)phenyl)acrylamide] had an inhibition at 0.1 µM greater than 50% and an IC50 of less than 100 nM.
As to `C=CC(=O)N1CCC(c2cc(-c3ccc(Oc4cc(C(F)(F)F)ccn4)cc3)cc3cnc(N)nc23)C1` (centres unmarked) [C104, 1-(3-(2-amino-6-(4-((4-(trifluoromethyl)pyridin-2-yl)oxy)phenyl)quinazolin-8-yl)pyrrolidin-1-yl)prop-2-en-1-one], the inhibition at 0.1 µM was less than 50%.
The molecule `C=CC(=O)Nc1cccc(-c2cc(-c3ccc(Oc4ncccc4Cl)cc3F)cc3cncnc23)c1` [C106, N-(3-(6-(4-((3-chloropyridin-2-yl)oxy)-2-fluorophenyl)quinazolin-8-yl)phenyl)acrylamide] gave an inhibition at 0.1 µM greater than 50% and a half-maximal inhibitory concentration (IC50) of less than 100 nM.
Take `C=CC(=O)N1CCC(c2cc(-c3ccc(Oc4ccccn4)cc3)cc3cncnc23)C1` (centres unmarked) [C107, 1-(3-(6-(4-(pyridin-2-yloxy)phenyl)quinazolin-8-yl)pyrrolidin-1-yl)prop-2-en-1-one]: the inhibition at 0.1 µM is greater than 50%.
The molecule `C=CC(=O)N1CCC(c2cc(-c3ccc(Oc4ncccc4F)cc3F)cc3cncnc23)C1` (centres unmarked) [C108, 1-(3-(6-(2-fluoro-4-((3-fluoropyridin-2-yl)oxy)phenyl)quinazolin-8-yl)pyrrolidin-1-yl)prop-2-en-1-one] returned an inhibition at 0.1 µM greater than 50%.
`C=CC(=O)Nc1cccc(-c2cc(-c3ccc(C(=O)Nc4cc(C#N)ccn4)cc3)cc3cncnc23)c1` [C109, 4-(8-(3-acrylamidophenyl)quinazolin-6-yl)-N-(4-cyanopyridin-2-yl)benzamide] had an inhibition at 0.1 µM of less than 50%.
In turn, `C=CC(=O)Nc1cccc(-c2cc(-c3cncc(OC)c3)cc3cnc(N)nc23)c1` [C110, N-(3-(2-amino-6-(5-methoxypyridin-3-yl)quinazolin-8-yl)phenyl)acrylamide] gave an inhibition at 0.1 µM greater than 50%.
Molecule `C=CC(=O)Nc1cccc(-c2cc(-c3cncc(F)c3)cc3cnc(N)nc23)c1` [C111, N-(3-(2-amino-6-(5-fluoropyridin-3-yl)quinazolin-8-yl)phenyl)acrylamide] registered an inhibition at 0.1 µM greater than 50% and an IC50 of less than 100 nM.
The molecule `C=CC(=O)Nc1cccc(-c2cc(-c3ccc(C(=O)Nc4cccnc4)cc3)cc3cncnc23)c1` [C113, 4-(8-(3-acrylamidophenyl)quinazolin-6-yl)-N-(pyridin-3-yl)benzamide] came in with an inhibition at 0.1 µM of less than 50%.
On the same count and under the same terms, under `C=CC(=O)N1CCC(c2cc(-c3ccc(Oc4ccccn4)cc3F)cc3cncnc23)C1` (centres unmarked) [C114, 1-(3-(6-(2-fluoro-4-(pyridin-2-yloxy)phenyl)quinazolin-8-yl)pyrrolidin-1-yl)prop-2-en-1-one] stands greater than 50%.
In the case of `C=CC(=O)N1CCC(c2cc(-c3ccc(C(=O)Nc4cccnc4)cc3)cc3cncnc23)C1` (centres unmarked) [C115, 4-(8-(1-acryloylpyrrolidin-3-yl)quinazolin-6-yl)-N-(pyridin-3-yl)benzamide], the inhibition at 0.1 µM is less than 50%.
The molecule `C=CC(=O)Nc1cccc(-c2cc(-c3ccc(C(=O)Nc4cc(C(F)(F)F)ccn4)cc3Cl)cc3cncnc23)c1` [C116, 4-(8-(3-acrylamidophenyl)quinazolin-6-yl)-3-chloro-N-(4-(trifluoromethyl)pyridin-2-yl)benzamide] yielded an inhibition at 0.1 µM greater than 50% and a half-inhibitory concentration (IC50) of less than 100 nM.
`C=CC(=O)Nc1cccc(-c2cc(-c3ccc(Oc4cccnc4)cc3)cc3cncnc23)c1` [C117, N-(3-(6-(4-(pyridin-3-yloxy)phenyl)quinazolin-8-yl)phenyl)acrylamide]: the inhibition at 0.1 µM was greater than 50% and the IC50 was less than 100 nM.
Molecule `C=CC(=O)Nc1cccc(-c2cc(-c3ccccn3)cc3cncnc23)c1` [C118, N-(3-(6-(pyridin-2-yl)quinazolin-8-yl)phenyl)acrylamide] came in with an inhibition at 0.1 µM greater than 50%.
In the case of `C=CC(=O)Nc1cccc(-c2cc(-c3ccc(Oc4ccccn4)c(OC)c3)cc3cncnc23)c1` [C119, N-(3-(6-(3-methoxy-4-(pyridin-2-yloxy)phenyl)quinazolin-8-yl)phenyl)acrylamide], the inhibition at 0.1 µM is greater than 50%.
For the molecule `C=CC(=O)Nc1cccc(-c2cc(-c3ccc(C(=O)Nc4cc(C#N)ccn4)cc3Cl)cc3cncnc23)c1` [C122, 4-(8-(3-acrylamidophenyl)quinazolin-6-yl)-3-chloro-N-(4-cyanopyridin-2-yl)benzamide], the inhibition at 0.1 µM was greater than 50% and the IC50 was less than 100 nM.
Take `C=CC(=O)N1CCC(c2cc(-c3ccc(C(=O)Nc4cc(C5CC5)ccn4)cc3)cc3cncnc23)C1` (centres unmarked) [C123, 4-(8-(1-acryloylpyrrolidin-3-yl)quinazolin-6-yl)-N-(4-cyclopropylpyridin-2-yl)benzamide]: the inhibition at 0.1 µM was greater than 50%.
The molecule `C=CC(=O)N1CCC(c2cc(-c3ccc(C(=O)Nc4cc(C#N)ccn4)cc3)cc3cncnc23)C1` (centres unmarked) [C124, 4-(8-(1-acryloylpyrrolidin-3-yl)quinazolin-6-yl)-N-(4-cyanopyridin-2-yl)benzamide] returned an inhibition at 0.1 µM of less than 50%.
The same measure, in the same setting: under `C=CC(=O)N1CCC(c2cc(-c3ccc(C(=O)Nc4cc(C(F)(F)F)ccn4)cc3)cc3cncnc23)C1` (centres unmarked) [C125, 4-(8-(1-acryloylpyrrolidin-3-yl)quinazolin-6-yl)-N-(4-(trifluoromethyl)pyridin-2-yl)benzamide] stands greater than 50%; under `C=CC(=O)N1CCC(c2cc(-c3ccc(C(=O)Nc4ccccn4)cc3F)n3cnccc23)C1` (centres unmarked) [C126, 4-(5-(1-acryloylpyrrolidin-3-yl)pyrrolo[1,2-c]pyrimidin-7-yl)-3-fluoro-N-(pyridin-2-yl)benzamide], less than 50%; under `C=CC(=O)Nc1cccc(-c2cc(-c3ccc(C(=O)Nc4cc(C(F)(F)F)ccn4)c(F)c3)cc3cncnc23)c1` [C127, 4-(8-(3-acrylamidophenyl)quinazolin-6-yl)-2-fluoro-N-(4-(trifluoromethyl)pyridin-2-yl)benzamide], less than 50%.
With `C=CC(=O)N1CCC(c2cc(-c3ccc(C(=O)Nc4cc(C(N)=O)ccn4)cc3)cc3cncnc23)C1` (centres unmarked) [C128, 2-(4-(8-(1-acryloylpyrrolidin-3-yl)quinazolin-6-yl)benzamido)isonicotinamide], the inhibition at 0.1 µM was less than 50%.
`C=CC(=O)Nc1cccc(-c2cc(-c3ccc(C(=O)Nc4cc(C(F)(F)F)ccn4)cc3F)cc3cncnc23)c1` [C129, 4-(8-(3-acrylamidophenyl)quinazolin-6-yl)-3-fluoro-N-(4-(trifluoromethyl)pyridin-2-yl)benzamide] had an inhibition at 0.1 µM greater than 50% and a concentration for half-maximal inhibition (IC50) of less than 100 nM.
`C=CC(=O)N1CCC(c2cc(-c3ccc(C(=O)Nc4cc(C(F)(F)F)ccn4)cc3F)n3cnccc23)C1` (centres unmarked) [C130, 4-(5-(1-acryloylpyrrolidin-3-yl)pyrrolo[1,2-c]pyrimidin-7-yl)-3-fluoro-N-(4-(trifluoromethyl)pyridin-2-yl)benzamide]: the inhibition at 0.1 µM is less than 50%.
Molecule `C=CC(=O)Nc1cccc(-c2cc(-c3ccc(C(=O)Nc4ccccn4)c(F)c3)cc3cncnc23)c1` [C132, 4-(8-(3-acrylamidophenyl)quinazolin-6-yl)-2-fluoro-N-(pyridin-2-yl)benzamide] showed an inhibition at 0.1 µM greater than 50% and an IC50 of less than 100 nM.
In turn, `C=CC(=O)N1CCC(c2cc(-c3ccc(Oc4ccccn4)cc3OC)cc3cncnc23)C1` (centres unmarked) [C133, 1-(3-(6-(2-methoxy-4-(pyridin-2-yloxy)phenyl)quinazolin-8-yl)pyrrolidin-1-yl)prop-2-en-1-one] showed an inhibition at 0.1 µM of less than 50%.
